Results published in ChEMBL document CHEMBL1201862, “PubChem BioAssay data set” (2004).
Activity calls are given as the source filed them.

Legend:
[1] = system: HEK293; experiment: cells; format: functional, cell-based; conditions: Homo sapiens
[2] = HepG2 cell cytotoxicity, dose response, cytotoxicity control for Shn3 inhibitor project, CellTiter-Glo, cherry-picked (AID 624134); format: functional, cell-based
[3] = system: HEK293; experiment: NOD1 signaling inhibitors, primary screen, cell-based, luminescence, uHTS (AID 1578); format: functional; conditions: Homo sapiens
[4] = system: HEK293; experiment: NOD2 signaling inhibitors in MDP-stimulated cells, cell-based, uHTS, luminescence (AID 2001); format: functional; conditions: Homo sapiens
[5] = system: HEK293; experiment: cells; format: functional, cell-based; conditions: Homo sapiens; remark: listed apart in the source
[6] = Shn3 3'UTR reporter inhibitors, dose response, cell-based, Clone20 osteoblasts, firefly luciferase, cherry-picked (AID 624132); format: functional;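 further: firefly luciferase luminescence from reporter carrying the Shn3 3'UTR in osteoblasts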
[7] = control 3'UTR Renilla luciferase suppression, dose response, counter-screen for Shn3 inhibitor project, cell-based, Clone20-Shn3RL, cherry-picked (AID 624133); format: functional
[8] = target: Cytochrome P450 2D6 (Homo sapiens, UniProt P10635);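 further: CYP2D6 member of a cytochrome P450 panel assay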
Chain of Cytochrome P450 2D6 (P10635 whole entry): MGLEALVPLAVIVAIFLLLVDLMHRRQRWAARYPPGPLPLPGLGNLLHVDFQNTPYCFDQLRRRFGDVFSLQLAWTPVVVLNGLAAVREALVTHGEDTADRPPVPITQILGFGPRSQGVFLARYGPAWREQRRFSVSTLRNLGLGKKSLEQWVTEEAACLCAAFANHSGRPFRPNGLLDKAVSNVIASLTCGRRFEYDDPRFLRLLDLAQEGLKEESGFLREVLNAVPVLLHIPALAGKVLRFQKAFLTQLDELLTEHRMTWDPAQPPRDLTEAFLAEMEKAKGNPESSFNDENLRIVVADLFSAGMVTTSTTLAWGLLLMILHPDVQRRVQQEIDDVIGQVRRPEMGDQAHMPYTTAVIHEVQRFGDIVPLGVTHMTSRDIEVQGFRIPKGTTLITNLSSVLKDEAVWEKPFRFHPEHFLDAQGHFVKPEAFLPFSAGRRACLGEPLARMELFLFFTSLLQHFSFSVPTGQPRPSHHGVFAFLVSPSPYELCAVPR

[9] = target: Glucose-6-phosphate 1-dehydrogenase (Homo sapiens, UniProt P11413); experiment: human G6PD enzyme inhibitors, dose response, selectivity assay for P. falciparum G6PD inhibitor project, biochemical, fluorescence (AID 504792); format: functional
Chain of Glucose-6-phosphate 1-dehydrogenase (P11413 whole entry): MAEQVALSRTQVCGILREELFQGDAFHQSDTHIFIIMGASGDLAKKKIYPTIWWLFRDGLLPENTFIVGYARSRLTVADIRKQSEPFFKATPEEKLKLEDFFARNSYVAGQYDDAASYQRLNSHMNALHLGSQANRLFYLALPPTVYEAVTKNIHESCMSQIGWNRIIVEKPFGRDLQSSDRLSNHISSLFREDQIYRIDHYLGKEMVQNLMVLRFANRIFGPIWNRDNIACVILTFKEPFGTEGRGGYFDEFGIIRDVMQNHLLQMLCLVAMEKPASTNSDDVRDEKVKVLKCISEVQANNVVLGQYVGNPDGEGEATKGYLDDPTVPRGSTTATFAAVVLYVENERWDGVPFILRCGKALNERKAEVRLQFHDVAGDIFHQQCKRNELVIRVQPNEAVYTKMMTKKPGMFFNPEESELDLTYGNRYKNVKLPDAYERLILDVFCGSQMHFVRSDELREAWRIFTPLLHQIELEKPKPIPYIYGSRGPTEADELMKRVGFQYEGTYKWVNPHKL

[10] = system: Vero; experiment: cells; format: functional; conditions: Chlorocebus sabaeus
[11] = system: HeLa; experiment: HeLa cell cytotoxicity, dose response, cytotoxicity control for MITF activator project, CellTiter-Glo luminescence, cherry-pick samples (AID 540259); format: functional, cell-based; conditions: Homo sapiens
[12] = system: Vero; experiment: cells; format: functional, cell-based; conditions: Chlorocebus sabaeus
[13] = target: T1, Streptokinase A (Streptococcus pyogenes serotype M1, UniProt P10520); experiment: S. pyogenes streptokinase expression inhibitors, potency, dose response, plasminogen activation absorbance, OD405 (AID 1914); format: functional, Streptococcus pyogenes M1 GAS;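 further: secreted streptokinase activity via plasminogen activation per viability signal from cell pellet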
T1 sequence (P10520 whole entry): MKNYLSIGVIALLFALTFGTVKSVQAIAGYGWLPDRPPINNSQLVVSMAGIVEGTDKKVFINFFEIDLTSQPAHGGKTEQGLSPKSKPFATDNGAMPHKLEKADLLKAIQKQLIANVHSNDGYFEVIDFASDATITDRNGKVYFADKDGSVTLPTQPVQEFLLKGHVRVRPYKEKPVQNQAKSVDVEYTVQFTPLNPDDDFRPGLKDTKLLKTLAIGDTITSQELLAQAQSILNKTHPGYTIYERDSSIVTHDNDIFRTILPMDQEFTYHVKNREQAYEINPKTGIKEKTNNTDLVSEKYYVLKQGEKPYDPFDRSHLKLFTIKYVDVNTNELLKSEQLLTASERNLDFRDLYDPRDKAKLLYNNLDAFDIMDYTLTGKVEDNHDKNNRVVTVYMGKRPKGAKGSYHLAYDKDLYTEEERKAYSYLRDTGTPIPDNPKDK

[14] = system: Streptococcus sp. 'group A'; experiment: growth inhibition of control SK(-) GAS strain, dose response, counter-screen for streptokinase expression inhibitor project, luminescence, kanamycin, BacTiterGlo, confirmation (AID 1900); format: functional, organism-based
[15] = system: Streptococcus; experiment: Group A Streptococcus viability loss, dose response, counter-screen for streptokinase expression inhibitor project, luminescence, BacTiterGlo (AID 1915); format: functional, organism-based;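 further: potency for reduction of bacterial viability or growth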
[16] = target: Induced myeloid leukemia cell differentiation protein Mcl-1 (Homo sapiens, UniProt Q07820); format: functional
Chain of Induced myeloid leukemia cell differentiation protein Mcl-1 (Q07820 whole entry): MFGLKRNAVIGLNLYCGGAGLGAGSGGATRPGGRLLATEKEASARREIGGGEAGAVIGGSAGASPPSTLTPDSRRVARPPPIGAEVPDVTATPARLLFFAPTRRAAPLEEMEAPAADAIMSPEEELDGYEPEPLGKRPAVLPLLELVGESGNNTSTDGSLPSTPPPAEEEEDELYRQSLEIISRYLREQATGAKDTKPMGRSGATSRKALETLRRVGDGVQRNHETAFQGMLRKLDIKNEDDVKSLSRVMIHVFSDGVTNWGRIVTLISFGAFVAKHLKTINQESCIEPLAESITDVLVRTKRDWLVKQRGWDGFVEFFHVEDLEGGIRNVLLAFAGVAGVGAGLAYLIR

[17] = target: T2, Ubiquitin-conjugating enzyme E2 N (Homo sapiens, UniProt P61088); format: functional
T2 sequence (P61088 whole entry): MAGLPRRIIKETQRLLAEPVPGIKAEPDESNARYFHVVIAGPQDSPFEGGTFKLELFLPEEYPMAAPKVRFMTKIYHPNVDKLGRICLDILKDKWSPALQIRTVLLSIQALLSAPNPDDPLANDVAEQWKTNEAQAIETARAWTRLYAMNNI

[18] = target: T3, Bcl-2-related protein A1 (Mus musculus, UniProt Q07440); format: functional;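 further: confirmatory dose–response counterscreen on Bfl-1, used to check hits from a UBC13 polyubiquitin inhibitor campaign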
T3 sequence (Q07440 whole entry): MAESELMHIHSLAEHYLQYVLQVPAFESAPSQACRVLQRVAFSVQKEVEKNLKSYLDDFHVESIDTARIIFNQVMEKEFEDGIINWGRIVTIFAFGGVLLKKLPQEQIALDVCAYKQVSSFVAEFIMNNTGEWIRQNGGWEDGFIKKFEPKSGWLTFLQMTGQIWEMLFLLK

[19] = target: T2, Ubiquitin-conjugating enzyme E2 N; format: functional; remark: listed apart in the source
[20] = target: T4, Microphthalmia-associated transcription factor (Homo sapiens, UniProt O75030); experiment: TRPM1 promoter luciferase signal decrease, dose response, MITF inhibitor project, cell-based, SK-MEL-5, cherry-picked, set 3 (AID 493073); format: functional
T4 sequence (O75030 whole entry): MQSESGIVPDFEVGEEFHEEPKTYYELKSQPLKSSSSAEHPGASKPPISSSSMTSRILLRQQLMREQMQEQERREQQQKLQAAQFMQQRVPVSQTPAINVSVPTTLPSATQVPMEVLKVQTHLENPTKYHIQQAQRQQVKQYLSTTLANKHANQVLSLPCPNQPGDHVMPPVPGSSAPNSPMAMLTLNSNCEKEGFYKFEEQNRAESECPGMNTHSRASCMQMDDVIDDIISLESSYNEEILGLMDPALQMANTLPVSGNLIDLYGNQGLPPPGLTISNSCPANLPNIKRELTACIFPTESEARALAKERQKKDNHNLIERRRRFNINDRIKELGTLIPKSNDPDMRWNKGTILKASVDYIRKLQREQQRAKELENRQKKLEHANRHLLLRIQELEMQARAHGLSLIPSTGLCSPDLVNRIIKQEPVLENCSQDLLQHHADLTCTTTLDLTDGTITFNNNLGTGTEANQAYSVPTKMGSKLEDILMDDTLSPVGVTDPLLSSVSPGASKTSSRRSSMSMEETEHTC

[21] = target: T5, Histone-lysine N-methyltransferase NSD2 (Homo sapiens, UniProt O96028); format: biochemical
T5 sequence (O96028 whole entry): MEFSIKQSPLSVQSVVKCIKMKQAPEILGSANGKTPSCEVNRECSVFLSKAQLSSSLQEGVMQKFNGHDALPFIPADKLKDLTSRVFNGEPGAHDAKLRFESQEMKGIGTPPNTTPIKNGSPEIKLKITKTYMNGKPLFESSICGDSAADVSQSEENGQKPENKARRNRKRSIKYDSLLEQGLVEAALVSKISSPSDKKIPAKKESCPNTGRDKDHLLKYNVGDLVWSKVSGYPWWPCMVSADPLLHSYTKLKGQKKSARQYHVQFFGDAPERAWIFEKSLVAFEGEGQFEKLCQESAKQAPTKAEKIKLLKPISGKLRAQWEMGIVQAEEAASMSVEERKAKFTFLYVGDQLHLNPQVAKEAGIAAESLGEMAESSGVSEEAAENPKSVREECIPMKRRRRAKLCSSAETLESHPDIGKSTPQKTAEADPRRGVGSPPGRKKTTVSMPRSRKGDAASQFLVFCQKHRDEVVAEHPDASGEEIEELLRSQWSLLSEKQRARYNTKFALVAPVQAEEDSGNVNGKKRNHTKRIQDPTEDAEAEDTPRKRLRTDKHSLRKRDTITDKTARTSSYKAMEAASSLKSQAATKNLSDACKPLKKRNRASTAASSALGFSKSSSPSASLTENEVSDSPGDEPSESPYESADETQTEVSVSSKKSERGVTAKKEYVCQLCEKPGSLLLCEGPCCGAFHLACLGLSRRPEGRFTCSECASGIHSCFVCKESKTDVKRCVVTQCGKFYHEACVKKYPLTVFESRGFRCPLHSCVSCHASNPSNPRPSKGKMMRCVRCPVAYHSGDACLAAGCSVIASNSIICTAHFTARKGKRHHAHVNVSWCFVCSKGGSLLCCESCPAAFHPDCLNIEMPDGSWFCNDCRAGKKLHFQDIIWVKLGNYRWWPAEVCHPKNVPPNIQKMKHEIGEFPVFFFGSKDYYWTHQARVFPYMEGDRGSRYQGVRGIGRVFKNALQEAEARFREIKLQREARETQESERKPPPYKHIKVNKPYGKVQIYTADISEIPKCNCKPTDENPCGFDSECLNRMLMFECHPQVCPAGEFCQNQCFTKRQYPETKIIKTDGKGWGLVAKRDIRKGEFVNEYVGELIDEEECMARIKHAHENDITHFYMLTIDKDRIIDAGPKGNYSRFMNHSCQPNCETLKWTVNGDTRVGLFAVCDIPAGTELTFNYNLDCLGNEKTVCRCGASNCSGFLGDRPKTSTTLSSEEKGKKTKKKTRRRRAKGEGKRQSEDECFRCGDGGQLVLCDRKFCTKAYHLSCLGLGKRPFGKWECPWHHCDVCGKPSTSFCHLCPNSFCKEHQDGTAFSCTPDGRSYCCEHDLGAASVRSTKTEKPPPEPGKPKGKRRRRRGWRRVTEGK

[22] = HeLa cell cytotoxicity, dose response, cytotoxicity control for MgcRacGAP inhibitor project (AID 624300); format: functional
[23] = target: Genome polyprotein (dengue virus type 2, UniProt P29990); experiment: Dengue-2 NS5 methyltransferase inhibitors, primary screen, biochemical, confirmation dose response (AID 588689); format: functional
Chain of Genome polyprotein (P29990 2492-3391 limits assumed): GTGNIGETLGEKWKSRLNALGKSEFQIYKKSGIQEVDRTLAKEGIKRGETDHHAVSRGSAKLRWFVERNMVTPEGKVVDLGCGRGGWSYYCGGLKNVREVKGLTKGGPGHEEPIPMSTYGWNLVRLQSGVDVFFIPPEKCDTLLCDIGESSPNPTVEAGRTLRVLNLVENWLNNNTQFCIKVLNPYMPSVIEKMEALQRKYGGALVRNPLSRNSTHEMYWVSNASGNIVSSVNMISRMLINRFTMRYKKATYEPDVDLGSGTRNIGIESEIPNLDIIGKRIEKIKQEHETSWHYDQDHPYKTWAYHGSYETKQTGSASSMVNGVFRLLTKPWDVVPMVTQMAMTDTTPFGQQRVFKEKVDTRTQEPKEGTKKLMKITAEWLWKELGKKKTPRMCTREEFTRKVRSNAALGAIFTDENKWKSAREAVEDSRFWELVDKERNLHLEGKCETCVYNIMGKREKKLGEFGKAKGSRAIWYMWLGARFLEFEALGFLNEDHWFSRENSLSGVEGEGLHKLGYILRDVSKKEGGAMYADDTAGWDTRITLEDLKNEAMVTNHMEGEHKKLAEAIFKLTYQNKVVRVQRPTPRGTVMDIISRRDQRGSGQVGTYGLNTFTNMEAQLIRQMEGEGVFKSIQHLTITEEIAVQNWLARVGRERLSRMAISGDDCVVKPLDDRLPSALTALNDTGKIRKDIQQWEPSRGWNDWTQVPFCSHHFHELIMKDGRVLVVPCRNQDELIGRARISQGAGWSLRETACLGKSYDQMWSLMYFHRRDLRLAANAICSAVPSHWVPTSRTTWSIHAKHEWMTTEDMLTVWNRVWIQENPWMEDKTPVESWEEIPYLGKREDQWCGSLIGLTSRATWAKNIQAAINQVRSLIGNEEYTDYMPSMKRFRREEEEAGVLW

[24] = target: DNA (cytosine-5)-methyltransferase 1 (Homo sapiens, UniProt P26358); experiment: DNMT1 methyltransferase inhibitors, confirmation, biochemical, fluorescent molecular beacon (AID 602386); format: functional
Chain of DNA (cytosine-5)-methyltransferase 1 (P26358 whole entry): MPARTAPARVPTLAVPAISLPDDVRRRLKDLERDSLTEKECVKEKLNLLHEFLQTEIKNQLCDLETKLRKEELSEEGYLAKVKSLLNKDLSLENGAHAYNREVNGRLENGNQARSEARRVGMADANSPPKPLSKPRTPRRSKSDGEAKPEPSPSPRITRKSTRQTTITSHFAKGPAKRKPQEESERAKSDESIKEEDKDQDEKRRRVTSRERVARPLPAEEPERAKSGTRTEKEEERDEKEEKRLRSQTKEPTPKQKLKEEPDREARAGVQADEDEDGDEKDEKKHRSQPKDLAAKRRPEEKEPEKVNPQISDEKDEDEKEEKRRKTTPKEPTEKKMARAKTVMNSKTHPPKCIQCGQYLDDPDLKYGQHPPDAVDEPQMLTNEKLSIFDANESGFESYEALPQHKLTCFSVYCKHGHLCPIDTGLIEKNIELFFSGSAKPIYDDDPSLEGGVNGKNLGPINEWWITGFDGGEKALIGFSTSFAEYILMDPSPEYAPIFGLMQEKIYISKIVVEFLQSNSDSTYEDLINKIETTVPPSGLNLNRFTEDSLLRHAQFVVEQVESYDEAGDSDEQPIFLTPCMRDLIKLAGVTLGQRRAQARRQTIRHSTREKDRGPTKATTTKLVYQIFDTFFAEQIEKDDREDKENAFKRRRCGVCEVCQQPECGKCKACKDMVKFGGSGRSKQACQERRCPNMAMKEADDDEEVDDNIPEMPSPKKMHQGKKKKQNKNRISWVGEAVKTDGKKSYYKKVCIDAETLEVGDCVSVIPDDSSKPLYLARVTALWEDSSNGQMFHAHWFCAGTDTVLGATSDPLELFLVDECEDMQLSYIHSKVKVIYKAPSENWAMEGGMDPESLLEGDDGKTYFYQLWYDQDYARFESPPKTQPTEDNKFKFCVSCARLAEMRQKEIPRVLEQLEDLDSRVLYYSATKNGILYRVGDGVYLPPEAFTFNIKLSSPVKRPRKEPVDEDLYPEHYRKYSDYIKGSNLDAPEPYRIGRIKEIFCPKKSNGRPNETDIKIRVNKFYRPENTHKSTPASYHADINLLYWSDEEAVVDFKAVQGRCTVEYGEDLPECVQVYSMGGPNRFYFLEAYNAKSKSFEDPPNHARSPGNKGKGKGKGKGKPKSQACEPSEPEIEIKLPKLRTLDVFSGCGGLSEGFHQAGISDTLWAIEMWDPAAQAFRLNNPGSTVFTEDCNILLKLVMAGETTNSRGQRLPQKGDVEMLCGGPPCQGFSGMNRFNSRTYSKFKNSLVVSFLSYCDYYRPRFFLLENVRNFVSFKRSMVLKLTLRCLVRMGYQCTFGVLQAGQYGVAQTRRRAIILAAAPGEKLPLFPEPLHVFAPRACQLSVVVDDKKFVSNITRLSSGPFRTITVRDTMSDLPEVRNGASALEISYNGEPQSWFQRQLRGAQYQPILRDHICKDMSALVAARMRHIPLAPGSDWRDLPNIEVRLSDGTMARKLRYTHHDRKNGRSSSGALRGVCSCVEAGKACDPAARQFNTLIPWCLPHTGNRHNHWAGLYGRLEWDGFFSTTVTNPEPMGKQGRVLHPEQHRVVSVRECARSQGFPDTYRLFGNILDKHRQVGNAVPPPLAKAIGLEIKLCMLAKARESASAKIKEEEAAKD

[25] = target: T6, Rac GTPase-activating protein 1 (Homo sapiens, UniProt Q9H0H5); experiment: MgcRacGAP GTPase-activating activity inhibitors, confirmation, biochemical, ADP Hunter fluorescence, primary and confirmatory (AID 624330); format: functional
T6 sequence (Q9H0H5 whole entry): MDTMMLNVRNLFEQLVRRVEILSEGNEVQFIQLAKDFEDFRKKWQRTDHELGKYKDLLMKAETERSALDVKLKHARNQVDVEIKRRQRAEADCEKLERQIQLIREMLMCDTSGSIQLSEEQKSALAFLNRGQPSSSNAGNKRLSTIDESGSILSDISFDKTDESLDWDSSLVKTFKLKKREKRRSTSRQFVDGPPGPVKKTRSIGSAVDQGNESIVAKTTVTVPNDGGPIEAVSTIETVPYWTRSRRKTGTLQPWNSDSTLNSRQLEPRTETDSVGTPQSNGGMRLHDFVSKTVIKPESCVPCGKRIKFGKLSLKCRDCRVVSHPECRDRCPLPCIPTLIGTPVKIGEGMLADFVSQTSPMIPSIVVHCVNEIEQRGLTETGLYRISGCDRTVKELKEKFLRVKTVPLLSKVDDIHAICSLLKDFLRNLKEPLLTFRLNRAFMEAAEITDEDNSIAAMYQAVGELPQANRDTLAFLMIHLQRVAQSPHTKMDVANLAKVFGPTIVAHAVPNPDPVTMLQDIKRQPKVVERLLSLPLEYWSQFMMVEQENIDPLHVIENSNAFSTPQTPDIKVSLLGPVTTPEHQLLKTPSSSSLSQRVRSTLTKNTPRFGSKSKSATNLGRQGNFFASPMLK

## Cn1cc(S(=O)(=O)N2CCc3ccccc32)cc1C(=O)NC(C)(C)C
[1]
  IC50: 10.6 µM (active)
[2]
  AC50: 3.56 µM (active)
[3]
  EC50: 3.38 µM (active)
[4]
  IC50: 12.3 µM (inactive)
[5]
  IC50: > 20 µM (inactive)
[6]
  AC50: 1.25 µM (active)
[7]
  AC50: 1.37 µM (active)

## OCCN(CO)CO
[8]
  AC50: inconclusive

## Cc1ccsc1/C=N\NC(=O)CC(=O)NCc1ccccc1
[9]
  IC50: > 80 µM (inactive)

## O=C(O)c1ccccc1N/N=C/c1cc(Br)cc(Br)c1O
[10]
  CC50: > 25 µM (active)
[11]
  AC50: 57.4 µM (active)
[12]
  IC50: 18.9 µM (active)
[13]
  EC50: 32.4 µM (active)
[14]
  EC50: 4.5 µM (active)
[15]
  EC50: 60.6 µM (active)
[16]
  IC50: 8.04 µM (active)

## NS(=O)(=O)c1cc2c(cc1Cl)N=C(CCC(=O)O)N=S2(=O)O
[8]
  AC50: inconclusive

## COc1ccc(/C=N/NC(=O)Cc2csc(Nc3cccc(C(F)(F)F)c3)n2)c(OC)c1
[17]
  IC50: 10.1 µM (active)
[18]
  IC50: > 20 µM (inactive)
[19]
  IC50: 14 µM (active)

## O=C(NCCN1CCN(c2ccccc2)CC1)c1ccc2c(c1)[nH]c(=S)n1c3ccccc3nc21
[17]
  IC50: > 20 µM (inactive)
[18]
  IC50: > 20 µM (inactive)
[19]
  IC50: 0.829 µM (active)

## N#C/C(=C(/O)CCl)c1nc2ccccc2[nH]1
[20]
  AC50: 4.6 µM (active)

## COc1ccc2c(c1OC)C(=O)N(c1ccc(C)cc1)C2
[11]
  AC50: 82.3 µM (active)

## Cc1ccc(C(C)C)cc1OCC(=O)Nc1nnc(C2CC2)s1
[12]
  IC50: > 25 µM (active)

## CCn1nc(C)c(NC(=O)/C=C/c2cnn(C)c2C)c1C
[8]
  AC50: inconclusive

## Cc1nn2c(-c3ccccc3)ccnc2c1-c1ccccc1
[11]
  AC50: 34.7 µM (active)

## COC(=O)C1CCCCN1C(=O)c1ccc2oc(Cc3ccccc3)nc2c1 (stereo not given)
[11]
  AC50: 181 µM (active)

## COC1=C(Br)C(=O)c2nc(C)ccc2C1=O
[21]
  AC50: 1.71 µM (active)
[22]
  CC50: 100 µM (active)
[23]
  IC50: 3.77 µM (active)
[24]
  IC50: 8.73 µM (active)
[25]
  IC50: 68.1 µM (active)
[9]
  IC50: 53.7 µM (inactive)
